The record followed here is PubChem BioAssay (NCI).

What all share (test): inhibition of tumour cell growth, NCI panel, 48 h
Assay [1] concerns A498 renal.
Assay [2] relates to HCT-15 colon.
The subject of assay [3] is IGROV1 ovarian.
The subject of assay [4] is K-562 leukemia.
Assay [5] deals with KM12 colon.
Assay [6] has as its system PC-3 prostate.
The test system of assay [7] is SF-268 CNS.
The subject of assay [8] is SF-539 CNS.
Assay [9] deals with SK-OV-3 ovarian.
Assay [10] concerns SNB-19 CNS.

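Results reflect a 48-hour exposure of cells in 96-well plates to compound at five concentrations. Abbreviation: GI50, concentration required for 50% inhibition of growth. TGI: total growth inhibition.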 Bounds are passed on as bounds.

On to `COc1cccc(N2C(=O)C3c4[nH]c5ccccc5c4C4CCCC4C3C2=O)c1` (configuration not stated), for which the TGI in assay [1] is 5.1 µM; in [2], more than 10 µM; in assay [3], more than 10 µM; in [4], more than 10 µM; in assay [5], more than 10 µM; in [6], more than 10 µM. The TGI in [7], in assay [8], in assay [9] and in assay [10] was more than 10 µM throughout.

For `O=C1c2cc3c(cc2[C@@H]2[C@H]1c1ccc([N+](=O)[O-])cc1C(=O)N2CCCBr)OCO3`, the GI50 in assay [1] was less than 0.01 µM; in [2] it was less than 0.0226 µM; in assay [3], less than 0.0136 µM; in [4], less than 0.0121 µM; in assay [5], 0.0437 µM; in [6] it was less than 0.01 µM. Moreover, the GI50 in [7], in assay [8], in assay [9] and in assay [10] was less than 0.01 µM throughout. Moreover, the TGI in [1] was less than 0.01 µM; in assay [2], 0.656 µM; in assay [4], 0.444 µM; in [5], 3.95 µM; in assay [6] it was 0.184 µM; in [7], 0.394 µM. Also, the TGI is less than 0.01 µM in assay [8], more than 100 µM in assay [9] and more than 100 µM in [10].

For the compound `O=C1NNC2(C(=O)N1)c1ccccc1-c1ccccc12`, the TGI in assay [2], in assay [3], in assay [4], in assay [5], in assay [6] and in [7] was more than 10 µM throughout. Moreover, the TGI in assay [8], in assay [9] and in assay [10] was more than 10 µM throughout.

As to `COc1cc2nc(N3CCCC3)nc(NCc3ccccc3)c2cc1OC`, the GI50 in assay [1] was 2.16 µM; in assay [2], 1.79 µM; in assay [3] it was 3.66 µM; in assay [4] it was 2.09 µM; in assay [5], 4.52 µM; in assay [6] it was 3.08 µM. Moreover, the GI50 in [7] was 8.31 µM; in assay [8], 1.71 µM; in assay [9], 14 µM; in assay [10], 5.05 µM. Besides, the TGI in assay [1] amounted to 8.56 µM; in assay [2] it was 4.22 µM; in assay [3] it was 16.2 µM; in [4] it was 6.02 µM; in assay [5], 17 µM; in assay [6] it was 15.2 µM. The TGI in [7] came out at 23.9 µM; in [8] it was 3.12 µM; in [9], 27.4 µM; in [10], 17.7 µM.

For `C=C(C(N)=O)c1ccc([N+](=O)[O-])o1`, the TGI came to 25.7 µM in assay [1]; 27.9 µM in assay [2]; 23.4 µM in [3]; 26 µM in [4]; 34.8 µM in [5]; 76 µM in [6]. In addition, the TGI in assay [7] was 37.9 µM; in [8], 27.2 µM; in assay [9], 87.9 µM; in assay [10] it was more than 100 µM.

Regarding `Cc1ccccc1OCC(O)CN1CCN(c2ccc(Cl)cc2)CC1` (configuration not stated), the GI50 is 11.9 µM in [1]; 19.2 µM in assay [2]; 10.6 µM in [4]; 17.8 µM in assay [5]; 11.7 µM in [6]; 17.4 µM in [7]. Moreover, the GI50 in assay [8] is 19.5 µM; in assay [9], 21.2 µM; in assay [10], 17.6 µM. Moreover, the TGI in [1] was determined as 24.6 µM; in assay [2], 40.2 µM; in assay [4], 30.7 µM; in assay [5], 36.9 µM; in [6], 25.9 µM; in assay [7], 34.3 µM. For the same compound, the TGI in assay [8] is 36.5 µM; in assay [9], 53.8 µM; in assay [10], 35.5 µM.

For `CCOC(=O)CCC(NC(=O)OCc1ccccc1)C(=O)NC(CCC(=O)OCC)C(=O)NC(CCC(=O)OCC)C(=O)NC(CCC(=O)OCC)C(=O)NC(CCC(=O)OCC)C(=O)NC(CCC(=O)OCC)C(=O)NC(CCC(=O)OCC)C(=O)OCC` (configuration not stated), the TGI in assay [1], in assay [2], in assay [4], in [6], in assay [7] and in [10] was more than 100 µM in each case.

`COc1ccc(CCN2CC=Cn3c2nc2ccccc2c3=O)cc1`: the GI50 is 0.0203 µM in assay [1]; 0.0185 µM in [2]; 0.0509 µM in [3]; 0.0203 µM in [4]; 0.0167 µM in assay [5]; 0.0308 µM in assay [6]. Further, the GI50 in assay [7] is 0.104 µM; in assay [8], 0.0209 µM; in assay [9], 0.0559 µM; in assay [10] it was 0.0614 µM. The TGI was 0.0851 µM in assay [1]; more than 45.7 µM in [2]; more than 50.3 µM in assay [3]; more than 100 µM in [4]; more than 100 µM in assay [5]; more than 100 µM in assay [6]. In addition, the TGI in [7] is more than 60.8 µM; in assay [8], 0.0627 µM; in assay [9], more than 89.7 µM; in [10], more than 100 µM.

For the compound `C/C(=N/NC(=S)N1CCCCC1)c1ccccc1O`, the TGI in assay [1] was more than 100 µM; in [2], more than 31.6 µM; in [3], more than 100 µM; in assay [4], more than 31.6 µM; in [5], more than 31.6 µM; in assay [6] it was more than 31.6 µM. Also, the TGI in [7] is more than 31.6 µM; in assay [8], more than 100 µM; in [9] it was more than 31.6 µM; in assay [10], more than 31.6 µM.

For the compound `Cc1cc(NCCCN(C)C)c2ccc3c(ccc4c(NCCCN(C)C)cc(C)nc43)c2n1`, the GI50 is 0.189 µM in assay [1]; 0.191 µM in assay [2]; 0.152 µM in assay [3]; 0.454 µM in [4]; 0.205 µM in assay [5]; 0.199 µM in assay [6]. In addition, the GI50 was 0.176 µM in [7], 0.193 µM in assay [8], 0.23 µM in assay [9] and 0.181 µM in assay [10]. The TGI in [1] is 0.409 µM; in assay [2], 0.543 µM; in assay [3] it was 0.377 µM; in assay [4] it was more than 100 µM; in assay [5], 0.57 µM; in assay [6], 0.609 µM. In addition, the TGI in [7] is 0.393 µM; in assay [8] it was 0.487 µM; in [9], 0.507 µM; in [10] it was 0.514 µM.
